Experimental data reported in PubChem BioAssay (NCI).
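Growth conditions: 96-well plates. Treatment: test compound, 48 hours, 5 concentrations. Analysis: linear interpolation between bracketing concentrations; unreached endpoints set to highest concentration. At the GI50, growth is halved. TGI: total growth inhibition.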

Tests used:
Test in all cases: inhibition of tumour cell growth, NCI panel, 48 h
SK-OV-3 ovarian = system: SK-OV-3 ovarian
MALME-3M melanoma = system: MALME-3M melanoma
HCC-2998 colon = system: HCC-2998 colon
SK-MEL-2 melanoma = system: SK-MEL-2 melanoma
KM12 colon = system: KM12 colon
HOP-62 NSCLC = system: HOP-62 NSCLC
SR leukemia = system: SR leukemia
LOX IMVI melanoma = system: LOX IMVI melanoma
SN12C renal = system: SN12C renal
HCT-116 colon = system: HCT-116 colon

Structure (SMILES)	GI50 (SK-OV-3 ovarian)	TGI (SK-OV-3 ovarian)	GI50 (MALME-3M melanoma)	TGI (MALME-3M melanoma)	GI50 (HCC-2998 colon)	TGI (HCC-2998 colon)	GI50 (SK-MEL-2 melanoma)	TGI (SK-MEL-2 melanoma)	GI50 (KM12 colon)	TGI (KM12 colon)	GI50 (HOP-62 NSCLC)	TGI (HOP-62 NSCLC)	GI50 (SR leukemia)	TGI (SR leukemia)	GI50 (LOX IMVI melanoma)	TGI (LOX IMVI melanoma)	GI50 (SN12C renal)	TGI (SN12C renal)	GI50 (HCT-116 colon)	TGI (HCT-116 colon)
COC(=O)c1ccc2c(c1)C(=O)c1c-2n(CCCN=[N+]=[N-])c(=O)c2cc(OC)c(OC)cc12	20.8 µM	> 100 µM	> 100 µM	> 100 µM	> 100 µM	> 100 µM	> 100 µM	> 100 µM	> 100 µM	> 100 µM	> 100 µM	> 100 µM	3.57 µM	56 µM	> 100 µM	> 100 µM	> 100 µM	> 100 µM	> 100 µM	> 100 µM
O=[N+]([O-])c1ccc2occ3c2c1CCC3		> 100 µM		> 100 µM		> 100 µM		> 100 µM		> 100 µM		> 100 µM		> 100 µM		> 100 µM		> 100 µM		> 100 µM
CCC[CH2][Sn]([CH2]CCC)([O]C(=O)c1ccc(OC)c(OC)c1OC)[O][Sn]([CH2]CCC)([CH2]CCC)[O]C(=O)c1ccc(OC)c(OC)c1OC	1.24 µM	2.59 µM	0.168 µM	0.757 µM	0.341 µM	1.5 µM	0.16 µM	0.48 µM	0.859 µM	2.31 µM	1.61 µM	2.98 µM	0.315 µM	> 100 µM	0.134 µM	0.292 µM	0.443 µM	1.58 µM	0.276 µM	0.833 µM
Cc1cc(N[C@@H]2CCC[C@H](Nc3ccnc4cc(Cl)ccc34)C2)nc(N2CCCCCC2)n1	1.86 µM	3.73 µM	1.83 µM	3.42 µM	1.72 µM	3.29 µM	2.07 µM	4.52 µM	2.06 µM	4.48 µM	1.37 µM	3.03 µM	0.228 µM	0.847 µM	1.43 µM	2.96 µM	1.55 µM	3.11 µM	1.05 µM	2.36 µM
NC(N)=N/N=C/c1c(Cl)cccc1Cl	41.6 µM	> 100 µM	16.2 µM	33.5 µM	14.8 µM	28.6 µM	18.5 µM	36.1 µM	19.9 µM	59.1 µM	30.9 µM	> 100 µM	22.2 µM	56.3 µM	14.4 µM	30.1 µM	36.6 µM	> 100 µM	17.2 µM	36.1 µM
